The text below walks through data of patent publication US5169852A, “Method of suppressing appetite by administration of tetrahydro-beta-carboline derivatives” (priority 1990, dated 1992).

“Also recorded” adds a separate entry of the source. Structures can show the parent of a compound that is named as a salt. Where two headings read alike, the source gives them in different places.

Data set [1] can be described thus: Reduction of food intake in fasted rats, intraperitoneal (IC50 from dose-response curve). In kind it is in vivo, rat. The following applies: ip.
Description: The measured food intake was plotted as a function of the natural logarithm of the drug concentration (ln(Dose)) given to the animal for each of the compounds listed above. A dose response curve of the functional form: Intake =α+(1-α)/[1+exp(β- ln(Dose))]was fit to each of the data sets using the NONLIN feature of the Systat™ statistical analysis software package for the Macintosh™ (Systat, Evanston, Il).
Data set [2] is described as follows: Partial appetite suppression: food intake over one hour vs dose (FIG. 5). Format: in vivo. Conditions: rat. As for the experimental part:
Adult male rats weighing between 250 and 300 g were acclimated to laboratory conditions for a period of 4-5 days, during which they were allowed unrestricted access to food (Ralston-Purina #5001M) and water. All animals were housed in individual cages. The animal facility was maintained on a 12:12 hr light-dark schedule at 22° C.
Fasted animals were sorted into groups of 10-12 each by weight and baseline food intake. Each was then given saline containing 0-32 mg/Kg of a compound of the invention (or THBC) by intraperitoneal injection. After 20 minutes, animals were allowed access to food and water. Cumulative food intake was measured at 1 hour post-injection.
Reduction in food intake over one hour was measured against the dose per unit body weight for THBC and compound 14. The results are shown in FIG. 5A, which compares compound 14 with THBC.

The subject of data set [3] is brain tryptamine binding sites. The following applies: cited from earlier work.
For data set [4], the system named is brain imipramine binding sites. Conditions: cited from earlier work.
Data set [5] deals with brain 5-hydroxytryptamine (5-HT) binding sites. Conditions: cited from earlier work.
Data set [6] has as its system brain spiperone binding sites. Conditions: cited from earlier work.
Another data set deals with 5 HT efflux. Conditions: brain slices; cited from earlier work.
In another data set the test system is 5-HT uptake. Conditions: brain synaptosomes; cited from earlier work.
The subject of data set [7] is 5-HT oxidative deamination. The following applies: cited from earlier work.
The conditions of data set [8]: cited from earlier work.
The conditions of data set [9]: rats; cited from earlier work.
For data set [10] the following is noted: systemic, rodents; cited from earlier work.
For data set [11] the following is noted: parenteral, rats; cited from earlier work.
The conditions of data set [12]: cited from earlier work. This is another data set of the same source.
For data set [13] the following is noted: cited from earlier work; for effect on feeding (hyperphagic / anorectic): S. Cooper.
The conditions of data set [14]: human, in vivo; cited from earlier work.
The subject of a further data set is benzodiazepine receptors. Conditions: Skolnick; Robertson; cited from earlier work.
[15] abbreviates: Rattus norvegicus, 1 h, read-out: Activity LOG (IC50), reduction of food intake.
The mark [16] stands for this setting: Rattus norvegicus, 1 h, read-out: Log (1/IC50) Measured.
[17] abbreviates: rat, intraperitoneal, 1 hour food intake, Table 3, read-out: Log (1/IC50) Measured (converted).
Setting [18] is: rat, intraperitoneal, 1 hour food intake, Table 2, read-out: Activity LOG (IC50), reduction of food intake (converted).

Consider `c1ccc2c3c([nH]c2c1)CNCC3` [Compound 1, 1,2,3,4-tetrahydro-β-carboline], for which the ED50 in data set [1] (setting [15]) is 0.0145 µmol/kg. Also, the ED50 in [1] (setting [16]) was 69.2 µmol/kg. Moreover, the “feeding depression / dose-response behavior” value in [2] was “little feeding depression at low dosage, but relatively complete feeding depression at higher dosage”. Also, the “competition for brain tryptamine binding sites” value in data set [3] is listed as “low affinity”. Moreover, the “competition for brain imipramine binding sites” value in data set [4] was “low affinity”. The “competition for brain 5-HT binding sites” value in data set [5] is recorded as “low affinity”. Moreover, the “competition for brain spiperone binding sites” value in [6] is recorded as “low affinity”. Moreover, in the data set on 5 HT efflux, the “depolarization-induced 5 HT efflux” value was “enhances”. In the data set with 5-HT uptake, the “inhibition of 5-HT uptake” value was “weakly inhibits”. Moreover, the “inhibition of 5-HT oxidative deamination” value in data set [7] is “weakly inhibits”. The “behavioral syndrome at high doses” value in [8] (high doses) was “hyperactivity, forepaw treating, body weaving, and circling”. Besides, in data set [8] (parenteral), the behavioral effects entry was “suppresses locomotion, exploratory activity, and conflict behavior, impairs performance on operantly conditioned learning and memory tasks, reduces seizure susceptibility, prolongs barbiturate sedation, and antagonizes specific drug induced stereotypic behavior”. In addition, in data set [9], the “behavioral effects, intraventricular” value was “reduce motor activity, induce apparent anxiety, and increase voluntary ethanol consumption”. Also, in data set [10], the plasma corticosterone entry was “elevated”, the plasma prolactin levels result is recorded as “dose-dependent elevation” and the “serum luteinizing hormone levels” value is listed as “decreased”. In addition, the “dose eliciting significant hypothermia” value in [11] was ≥ 6.25 mg/kg. In addition, the deaths in data set [12] (49 mg/Kg/day or greater) is listed as 6 out of the 24. Further, the “treatment day by which food consumption returns to normal (tolerance)” value in data set [12] (daily oral, in excess of 49 mg/Kg) is “twelfth”. In addition, in data set [12] (daily oral, less than 30 mg/Kg), the “appetite, smaller daily doses” value is “do not significantly alter appetite”. Also, in data set [12] (in excess of 49 mg/Kg daily, after two consecutive days), the “food intake, daily oral administration” value is “significant reductions in food intake”.

Turning to `CNC(=O)c1cc2c(cn1)[nH]c1ccccc12` [β-carboline-3-carboxylic acid methyl amide], the “food consumption by partially sated rats” value in data set [13] (10.0 mg/Kg, intraperitoneal) is given as 30 % of control. The “effect on feeding (hyperphagic / anorectic)” value in data set [13] was “anorectic”.

Turning to `O=Cn1c2c(c3ccccc31)CCNC2` [Compound 18], in data set [1] (setting [17]), the ED50 was 91.2 µmol/kg.

Consider `O=C(O)C1Cc2c([nH]c3ccccc23)CN1` (racemic) [Compound 14, (±) 3-carboxyl-1,2,3,4-tetrahydro-β-carboline], for which the ED50 in [1] (setting [18]) was 0.0331 µmol/kg; in data set [1] (setting [17]), 30.2 µmol/kg. Also, in data set [2], the “feeding depression / dose-response behavior” value was “will not depress feeding behavior over a comparatively large feeding range; also recorded: moderate feeding depression over a broad dosage range”.

Take `CCCCCn1c2c(c3ccccc31)CCNC2` [Compound 23, 9-(n-pentyl)-1,2,3,4-tetrahydro-β-carboline hydrochloride]: the ED50 in [1] (setting [18]) is 0.055 µmol/kg; in data set [1] (setting [17]), 18.2 µmol/kg.

Turning to `CC(=O)N1CCc2c(n(Cc3ccccc3)c3ccccc23)C1` [Compound 27, 2 acetyl-9 benzyl-1,2,3,4-tetrahydro-β-carboline], the ED50 in data set [1] (setting [18]) was 0.0339 µmol/kg; in data set [1] (setting [17]), 29.5 µmol/kg.

For `Fc1ccc2c3c([nH]c2c1)CNCC3` [Compound 5, 7-fluoro-1,2,3,4-tetrahydro-β-carboline hydrochloride], the results for the ED50 in data set [1] (setting [15]) and in [1] (setting [16]) were 0.0214 µmol/kg and 46.8 µmol/kg, respectively.

As for `COc1ccc2[nH]c3c(c2c1)CCNC3` [Compound 2, 6-methoxy-1,2,3,4-tetrahydro-β-carboline], the ED50 was 0.0162 µmol/kg in data set [1] (setting [15]) and 61.7 µmol/kg in data set [1] (setting [16]).

Turning to `Cc1cccc2c3c([nH]c12)CNCC3` [Compound 10, 8-methyl-1,2,3,4-tetrahydro-β-carboline hydrochloride], the ED50 in data set [1] (setting [18]) was 0.0162 µmol/kg; in data set [1] (setting [17]) it was 61.7 µmol/kg.

On to `CCNC(C)Cc1cccc(C(F)(F)F)c1` (stereo not shown) [fenfluramine], for which, in data set [14], the clinical efficacy entry is given as “inadequate clinical efficacy”; the “patient complaints (side effects)” value was “drowsiness and headache”.

As for `CC(=O)N1CCc2c([nH]c3ccccc23)C1` [Compound 16, 2-acetyl-1,2,3,4-tetrahydro-β-carboline], the ED50 was 0.0162 µmol/kg in data set [1] (setting [18]) and 61.7 µmol/kg in data set [1] (setting [17]). Further, the “feeding depression / dose-response behavior” value in data set [2] is given as “The same behavior was observed”.

For `CCOC(=O)c1ncc2[nH]c3ccc(OCc4ccccc4)cc3c2c1COC` [ethyl 6-benzyloxy-4-meth-oxymethyl-β-carboline-3-carboxylate], in data set [13], the “effect on feeding (hyperphagic / anorectic)” value was “hyperphagic”.

Consider `O=C(O)C1Cc2c([nH]c3ccc(O)cc23)CN1` (stereo not shown) [Compound 15], for which, in data set [1] (setting [17]), the ED50 is 91.2 µmol/kg.

In the case of `CCOC(=O)c1ncc2[nH]c3cccc(OCc4ccccc4)c3c2c1COC` [ethyl-5-benzyloxy-4-methoxymethyl β-carboline-3-carboxylate], the “effect on feeding (hyperphagic / anorectic)” value in data set [13] was “hyperphagic”.

As to `Clc1ccc2[nH]c3c(c2c1)CCNC3` [Compound 8, 6-chloro-1,2,3,4-tetrahydro-β-carboline hydrochloride], the ED50 in [1] (setting [15]) is 0.0347 µmol/kg; in [1] (setting [16]), 28.8 µmol/kg.

Regarding `CC1NCCc2c1[nH]c1ccccc21` (stereo not shown) [Compound 7], the ED50 in [1] (setting [16]) is 100 µmol/kg.

For `Cc1cccc2[nH]c3c(c12)CCNC3` [Compound 17], in data set [1] (setting [17]), the ED50 was 30.2 µmol/kg.

For `Cc1ccc2[nH]c3c(c2c1)CCNC3` [Compound 12], the ED50 in data set [1] (setting [17]) was 30.9 µmol/kg.

On to `CCC1Cc2c([nH]c3ccccc23)CN1` (stereo not shown) [Compound 13], for which the ED50 in [1] (setting [17]) is 77.6 µmol/kg.

Consider `c1ccc(Cn2c3c(c4ccccc42)CCNC3)cc1` [Compound 19, 9 benzyl-1,2,3,4-tetrahydro-β-carboline hydro-chloride], for which the ED50 in data set [1] (setting [18]) was 0.0447 µmol/kg; in [1] (setting [17]), 22.4 µmol/kg.

Consider `COC(=O)C1Cc2c([nH]c3ccccc23)CN1` (stereo not drawn) [3-carbomethoxy-1,2,3,4-tetrahydro-β-carboline], for which, in the data set with benzodiazepine receptors, the “binding affinity to benzodiazepine receptors” value is “very low affinity”.

`CCn1c2c(c3ccccc31)CCNC2` [Compound 20, 9-ethyl-1,2,3,4-tetrahydro-β-carboline hydrochloride]: the ED50 in data set [1] (setting [18]) was 0.0309 µmol/kg; in [1] (setting [17]), 32.4 µmol/kg.

As for `Fc1ccc2[nH]c3c(c2c1)CCNC3` [Compound 4, 6-fluoro-1,2,3,4 tetrahydro-β-carboline hydrochloride], the ED50 was 0.0257 µmol/kg in data set [1] (setting [15]) and 38.9 µmol/kg in data set [1] (setting [16]).

Take `CCCCCn1c2c(c3cc(C)ccc31)CCNC2` [Compound 21, 6-Methyl-9-(n-pentyl)-1,2,3,4-tetrahydro-β-carboline hydrochloride]: the ED50 is 0.0589 µmol/kg in data set [1] (setting [18]) and 17 µmol/kg in data set [1] (setting [17]).

Take “ethyl -isopropoxy-4-methyl-β-carboline-3-carboxylate”: in data set [13], the “effect on feeding (hyperphagic / anorectic)” value was “hyperphagic”.
